The source of these data is patent US12440531B2, “Composition for use in improving endothelial function by enhancing flow mediated dilation” (SOCIETE DES PRODUITS NESTLE S.A., priority 2019, dated 2025).

Assay [1] relates to L. johnsonii esterase. As to the kind of experiment: Substrate specificity with 4-nitrophenyl derivatives. The format is biochemical, Lactobacillus johnsonii. The following applies: substrate 0.2 mM, sodium phosphate buffer pH 6.0, 37° C., 10 min, absorbance 410 nm. How it is done:
The substrate specificity of L. johnsonii esterase was studied using different 4-nitrophenyl derivatives. […] The reactions were carried out in sodium phosphate buffer pH 6.0 at 37° C. for 10 min. The substrates were used at concentration of 0.2 mM and enzyme at 0.01 U/mg substrate. The measures were monitored each 30 seconds. The absorbance was set at 410 nm.

The subject of assay [2] is human vascular function. The settings on record: pure 5-CQA at 450 mg and 900 mg, 24 subjects; cited from earlier work.

In the case of `CCCCCCCCCCCC(=O)Oc1ccc([N+](=O)[O-])cc1` [4-nitrophenyl dodecanoate], the “transformation as substrate of L. johnsonii esterase” value in assay [1] was “no transformation”.
On the same count and under the same terms, as for `CCCC(=O)Oc1ccc([N+](=O)[O-])cc1` [4-nitrophenyl butyrate], the entry is “best substrate”.
With `O=C(/C=C/c1ccc(O)c(O)c1)O[C@@H]1C[C@](O)(C(=O)O)C[C@@H](O)[C@H]1O` [Dose 5-CQA, 5-CQA], the “effect on human vascular function” value in assay [2] was “did not show a significant effect”.
